Assay results from patent US11731982B2, “Biotin derivatives” (LIFE TECHNOLOGIES CORPORATION, priority 2010, dated 2023).

Experiments:
[1] = target: T1, M-280 Streptavidin Dynabeads (streptavidin) (Streptomyces avidinii, UniProt P22629); test: Fluorescent capture and release assay on M-280 Streptavidin Dynabeads; format: binding
T1 construct: purchased Invitrogen
Description: In order to evaluate the binding affinity and reversibility of N3′-ethyl biotin with streptavidin, a simple fluorescent binding and release assay was designed. Briefly, N3′-ethyl biotin-AF488 conjugate 117 was incubated with M-280 Streptavidin Dynabeads in pH 7.4 PBS buffer. After 25 min incubation at room temperature, the magnetic beads were separated from the supernatant, which was used to measure the capture efficiency, by measuring the fluorescent intensity of the supernatant solution to determine the amount that was not captured. Then, the N3′-ethyl biotin 117 bound magnetic beads were washed with PBS buffer to remove weak or non-specific binding. The reversibility was tested by incubating the N3′-ethyl biotin 117 bound magnetic beads with 2 mM biotin in PBS buffer at room temperature for 5 min, then the magnetic beads were concentrated by a magnet, and the fluorescent intensity in the solution was measured to determine the amount that was released. As a control, biocytin-AF488 conjugate was also tested in the same assay format.
The details of fluorescent capture and release assay were as follows. 100 μL of M280 Streptavidin Dynabeads (10 mg/mL, Invitrogen) was transferred to a 1.5 mL centrifuge tube, and washed with 500 μL PBS three times. […]

[2] = target: T2, streptavidin (Streptomyces avidinii, UniProt P22629); test: Kinetic measurement of rate constants, label-free ForteBio system, N3′-ethyl biotin immobilized on sensor tips; format: binding
T2 construct: purchased ForteBio
Description: The binding constant and on-and-off rate constant of N3′-ethyl biotin with streptavidin were tested using a label-free ForteBio system. The N3′-ethyl biotin 117 was covalently immobilized to amine reactive sensor tips from ForteBio. To generate the association curve, the N3′-ethyl biotin labeled biosensor tips were incubated with streptavidin at 25° C. The dissociation curve was determined by incubating the streptavidin bound sensor tips in PBS buffer described above, as well as in PBS buffer containing 2 mM biotin at 25° C. […] The dissociation constant kD of N3′-ethyl biotin is about 0.8 nM.
The details of fluorescent capture and release assay were follows. All interaction analyses were conducted at 25° C. in kinetic buffer (PBS, 0.1% BSA, 0.05% Tween-20, pH 7.2). The amine reactive biosensor tips from ForteBio were prewet for 20 min in water prior to use. The prepared samples and buffers were added to a 96-well microplate at 200 μL per well according the following sample layout, and the entire 96-well plate was agitated at 1000 rpm. Eight biosensor tips were performed the kinetic assay in parallel. Each amine reactive biosensor tip was equilibrated in MES buffer for 5 min, then activated with EDC/NHS for 5 min. The activated biosensor tip was labeled with 2 mM N3′-ethyl biotin 117 for 10 min, then quenched with 1 M ethanolamine for 5 min. The N3′-ethyl biotin 117 immobilized biosensor tip was incubated in kinetic buffer for 5 min to generate baseline, then incubated with 2 μg/mL streptavidin in kinetic buffer or kinetic buffer (control) at 1000 rpm for 10 min to generate association curve, followed by incubation with kinetic buffer or 2 mM biotin in kinetic buffer at 1000 rpm for 10 min to generate dissociation curve. The ForteBio Data Analysis Octet software was used to process the curve by subtracting sample curve from reference curve, and the kinetic data was calculated by fitting curve.

[3] = Isolation of azido sugar containing glycoproteins from Jurkat cell lysate by click labeling and streptavidin agarose; details: elution 1% SDS in H2O at 95° C. for 5 min
Description: In order to isolate azido sugar containing glycoproteins from cell mixture, the Jurkat cells were cultured in Ac4GlcNAz supplemented media for 24 h. In this culturing, Jurkat cells were cultured in 100 mL RPMI 1640 media supplemented with 10% FBS at two T175 tissue culture flasks. When cell density reached ˜10×10^6 cells/mL, 100 μL of Ac4GlcNAz (100 mM in DMSO) and DMSO (control) were added, respectively. The flasks were incubated at 37° C. humidified incubator with 5% CO2 for 24 h. After incubation, the Jurkat cells were collected by centrifugation at 600×g for 5 min, and washed with PBS five times. The cell pellet was suspended in PBS to adjust the cell density at 50×10^6 cells/mL, and transferred 1 mL each to 1.5 mL tube. The cells were collected again by centrifugation at 600×g for 5 min. Then, 1 mL of 0.5% SDS/PBS was added to each tube, and lysated by sonication. The cell lysate was prepared at ˜3 mg/mL in 0.5% SDS/PBS.
Cell lysate was incubated with N3′-ethyl biotin alkyne 118 or biotin alkyne in the presence of CuSO4, THPTA, and sodium ascorbate at room temperature as described below. N3′-Ethyl biotin alkyne 118 and biotin alkyne (Invitrogen) were used to perform parallel protein enrichment experiments. Biotin alkyne has the structure: […]

T2 sequence (P22629 25-183): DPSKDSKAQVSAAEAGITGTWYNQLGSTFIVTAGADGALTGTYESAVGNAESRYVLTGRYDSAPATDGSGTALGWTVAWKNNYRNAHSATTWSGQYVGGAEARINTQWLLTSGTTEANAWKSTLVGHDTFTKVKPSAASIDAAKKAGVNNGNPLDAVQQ
T1 sequence (P22629 25-183): as above

N[C@@H](CCCCNC(=O)CCCC[C@@H]1SC[C@@H]2NC(=O)N[C@@H]21)C(=O)O [Biocytin]
Capture efficiency ([1]; 0.2 μM in PBS pH 7.4, 25 min room temperature): 96 ± 2%
Release efficiency ([1]; 2 mM biotin in PBS, room temperature 5 min): <5%

CCN1C(=O)N[C@H]2CS[C@@H](CCCCC(=O)O)[C@H]21 [N3′-ethyl biotin]
off-rate koff in the presence of 1 mM bis-biotin competing reagent ([2]; 1 mM bis-biotin): ~5.8×10^−2 S^−1
on-rate kon with streptavidin ([2]; 25° C.): ~1.5×10^5 M^−1S^−1
off-rate koff in the presence of 2 mM biotin ([2]; 25° C., 2 mM biotin): ~5.8×10^−2 S^−1
Kd ([2]; 25° C., read-out: dissociation constant kD): ~0.8 nM

C#CCNC(=O)CCOCCOCCOCCOCCNC(=O)CCCC[C@@H]1SC[C@@H]2NC(=O)N[C@@H]21 [biotin alkyne]
quality of isolated proteins [3]: contaminated with streptavidin

Biotin
reversibility of streptavidin binding ([2]; in the presence of 1 mM bis-biotin competing reagent): almost irreversible
